Holding throughout (experiment): relative viability (nuclei count vs DMSO), 5 days (fraction); higher = more cells survive
Compound in one test: Nc1ccccc1NC(=O)c1ccc(CNC(=O)OCc2cccnc2)cc1 [Entinostat]
Put shortly: (§1)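 In 1536-well plates, lung cancer cell lines rested overnight at 37 °C before five library-drug doses (not always all listed), √10 apart, were pinned onto vehicle-anchored plates. Nuclei were counted with MetaXpress from 4× Hoechst images taken after 5 days without medium change. Viability compares treated-well with vehicle-well nuclei as a median over plates, and plates needed control CV below 25% plus at least one doubling to pass.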

Compound in test [1]: C1COCCN1C2=NC(=NC3=C2OC4=C3C=CC=N4)C5=CC(=CC=C5)NC(=O)C6=CN=C(C=C6)N
Put shortly:
as §1

Compound in a further test: CN1CCC(CNc2ccc3ncc(-c4cccc(OC(F)(F)F)c4)n3n2)CC1 [SGI-1776]
An outline of the steps:
as §1

Compound in the test “SGI-1776 + Decitabine”: CN1CCC(CNc2ccc3ncc(-c4cccc(OC(F)(F)F)c4)n3n2)CC1 [SGI-1776] + Nc1ncn([C@H]2C[C@H](O)[C@@H](CO)O2)c(=O)n1 [Decitabine] (partner 2 µM)
Put shortly:
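Values are medians from duplicate plates. Each reflects relative viability, defined as the nuclei count of treated wells over that of vehicle wells. Lung cancer cell lines in 1536-well plates were pin-tool dosed one day after seeding with one drug alone or with a fixed anchor-drug dose plus five library-drug doses (not always all listed) in √10 steps, then fixed, stained and imaged at 4× after 5 days.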

As for UMC-11, the relative viability with Entinostat (0.02 µM) turned out to be 1.14; with Entinostat (0.06325 µM) it was 1.11; with Entinostat (0.2 µM) it was 0.918; with Entinostat (0.6325 µM) it was 0.287; with Entinostat (2 µM), 0.203; in test [1] (0.02 µM), 0.983. Moreover, the relative viability turned out to be 1.05 in test [1] (0.06325 µM); 0.945 in test [1] (0.2 µM); 1.13 in test [1] (0.6325 µM); 0.818 in test [1] (2 µM); 1 with SGI-1776 (0.08 µM); 1.04 with SGI-1776 (0.8 µM). Further, the relative viability was determined as 0.923 in the test with SGI-1776 (2.53 µM); 0.779 with SGI-1776 (8 µM); 0.588 in the test with SGI-1776 + Decitabine (first compound 0.08 µM); 0.571 with SGI-1776 + Decitabine (first compound 0.8 µM); 0.654 with SGI-1776 + Decitabine (first compound 2.53 µM); 0.467 in the test with SGI-1776 + Decitabine (first compound 8 µM).
